Assay results from paper PMC9967051, “(S)-N-Benzyl-1-phenyl-3,4-dihydroisoqunoline-2(1H)-carboxamide Derivatives, Multi-Target Inhibitors of Monoamine Oxidase and Cholinesterase: Design, Synthesis, and Biological Activity” (Molecules, 2023).
pIC50: −log10 of the molar value. Read-outs that look alike come from different tables or passages of the source.

Key:
[1] = tested on: MAO; experiment: MAO activity assay (total MAO); type: biochemical
Description: (§1) The enzyme activity analysis was performed according to the procedure reported by Matsumoto et al. with slight modifications. All materials used in the enzymatic assays were purchased from Aladdin Reagent Chemicals. […] The concentrations of the synthesized compounds altered from 0.001 µM to 100 µM for the MAO-A and -B enzyme activity inhibition. […] The enzymatic reactions were caused by the addition of MAO-A (40 µg/mL) or MAO-B (20 µg/mL), and cultured at 37 °C for 30 min. The enzyme reactions were stopped through the addition of 2N NaOH for 75 µL. […] The inhibitory effect of enzyme activity was calculated as a percentage of product formation compared to the corresponding control with no inhibitor. A control was established to determine the interference of the tested compounds to the fluorescence assay, and the enzyme or substrate was added after the reaction stopped.

[2] = biological target: T1, MAO-A (Homo sapiens, UniProt P21397); experiment: MAO activity assay, MAO-A; type: biochemical
T1 construct: purchased Aladdin Reagent Chemicals
T1 sequence (P21397 1-527): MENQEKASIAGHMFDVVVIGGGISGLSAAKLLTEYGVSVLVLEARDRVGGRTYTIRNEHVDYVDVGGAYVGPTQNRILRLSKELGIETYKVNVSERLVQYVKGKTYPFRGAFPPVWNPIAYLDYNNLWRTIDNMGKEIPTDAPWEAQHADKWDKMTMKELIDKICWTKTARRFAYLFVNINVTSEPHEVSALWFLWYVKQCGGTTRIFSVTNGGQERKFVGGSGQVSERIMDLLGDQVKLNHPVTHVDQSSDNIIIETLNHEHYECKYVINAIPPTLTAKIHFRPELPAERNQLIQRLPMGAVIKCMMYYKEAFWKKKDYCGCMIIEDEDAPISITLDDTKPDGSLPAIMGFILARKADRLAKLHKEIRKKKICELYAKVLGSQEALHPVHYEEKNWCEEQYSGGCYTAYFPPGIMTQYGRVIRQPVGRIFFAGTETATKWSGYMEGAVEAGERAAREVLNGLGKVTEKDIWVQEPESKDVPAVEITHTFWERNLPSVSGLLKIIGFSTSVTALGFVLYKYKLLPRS
Description: as §1

[3] = biological target: T2, BChE (Homo sapiens, UniProt P06276); experiment: biochemical; conditions: compounds concentration 100 µM; read-out: Inhibition Rate BChE
T2 sequence (P06276 29-602): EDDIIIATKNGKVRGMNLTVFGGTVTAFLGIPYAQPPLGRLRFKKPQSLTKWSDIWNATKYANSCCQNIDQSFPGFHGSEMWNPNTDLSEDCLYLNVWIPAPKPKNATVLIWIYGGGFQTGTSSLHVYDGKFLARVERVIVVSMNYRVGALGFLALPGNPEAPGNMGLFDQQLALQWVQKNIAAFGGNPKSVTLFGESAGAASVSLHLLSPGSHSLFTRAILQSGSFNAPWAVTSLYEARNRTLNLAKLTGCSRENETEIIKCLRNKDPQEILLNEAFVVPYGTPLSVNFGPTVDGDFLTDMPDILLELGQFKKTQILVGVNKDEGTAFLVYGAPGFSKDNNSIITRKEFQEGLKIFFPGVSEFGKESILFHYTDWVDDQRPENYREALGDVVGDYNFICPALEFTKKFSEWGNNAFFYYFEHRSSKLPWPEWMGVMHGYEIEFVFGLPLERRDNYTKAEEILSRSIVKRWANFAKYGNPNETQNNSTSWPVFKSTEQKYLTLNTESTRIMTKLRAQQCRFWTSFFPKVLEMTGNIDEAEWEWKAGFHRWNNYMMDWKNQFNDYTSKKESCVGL
Description: Inhibition of AChE and BChE was measured through the spectrophotometric method developed by Ellman’s method with slight modifications. The analysis protocol contained 96-well plates (100 µL per well). Each well involved 20 µL of assay buffer solution, 20 µL of the test sample, and 40 µL of 0.2 U/mL of AChE or BChE. The mixture was incubated for 10 min at 25 °C followed by the addition of substrate (20 µL). For AChE inhibition assay, acetylthiocholine iodide (ATCI, 0.001 mol/L), while for BChE assay, butyrylthiocholine chloride (BTCCl, 0.001 mol/L) was added to it. The mixture was incubated at 37 °C for 15 min. Ellman reagent (5,5′-dithio-bis(2-nitrobenzoic acid), DTNB, 0.001 mol/L) was added. […] The blank analysis was performed. All the analyses were performed in triplicate. Inhibition rate of experimental sample or positive control group (%) = [(control group-blank background)-(experimental sample or positive control group -sample background)]/(control-blank background) × 100%.

[4] = biological target: T3, MAO-B (Homo sapiens, UniProt P27338); experiment: MAO activity assay, MAO-B; type: biochemical
T3 construct: purchased Aladdin Reagent Chemicals
T3 sequence (P27338 1-520): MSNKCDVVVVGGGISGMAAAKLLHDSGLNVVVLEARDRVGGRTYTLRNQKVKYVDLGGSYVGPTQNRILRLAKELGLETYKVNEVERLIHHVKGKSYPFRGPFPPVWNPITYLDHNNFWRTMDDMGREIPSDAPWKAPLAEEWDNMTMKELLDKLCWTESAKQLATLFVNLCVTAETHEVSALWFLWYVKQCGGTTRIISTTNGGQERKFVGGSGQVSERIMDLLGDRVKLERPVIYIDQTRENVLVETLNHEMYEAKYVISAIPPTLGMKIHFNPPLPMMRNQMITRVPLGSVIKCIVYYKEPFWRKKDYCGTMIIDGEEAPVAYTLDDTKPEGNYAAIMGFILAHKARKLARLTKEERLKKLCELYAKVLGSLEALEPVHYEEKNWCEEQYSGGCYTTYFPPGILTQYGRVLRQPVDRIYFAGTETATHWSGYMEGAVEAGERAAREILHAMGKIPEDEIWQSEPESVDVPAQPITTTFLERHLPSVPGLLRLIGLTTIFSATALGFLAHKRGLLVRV
Description: as §1

[5] = tested on: L929 cells; experiment: AO fluorescent staining cell viability; type: cell-based; conditions: 100 μM, compared with the control group
Description: Using the AO Fluorescent Staining Kit, AO is a tricyclic heteroaromatic dye that can penetrate cells with intact cell membranes and embed nuclear DNA, making them emit bright green fluorescence. L929 cells were selected from the logarithmic growth phase, and the cell density was adjusted to 8 × 10^5 per well with a cell counter to inoculate in a 6-well plate, and the 6-well plate was placed in a 37 °C 5% carbon dioxide cell incubator for 12 h. It grew completely adhering to the wall. After 12 h, 1 mL of medium containing 100 μM of the compound to be tested was added (for the blank group, drug-free medium was added), shaken gently, and placed in a 5% carbon dioxide cell incubator at 37 °C for 12 h. After 12h, the medium was discarded, PBS was added to wash once, 1 mL of PBS and 80 μL of AO solution (prepared according to the kit instructions) were slowly added in the dark, and mixed for 5 min to make the staining uniform and sufficient. The staining was aspirated after 5 min, washed 1–2 times with PBS, and observed under a fluorescence microscope, the results were recorded and analyzed.

[6] = MTT cytotoxicity test; type: cell-based; conditions: mouse; L929 cells, compared with the blank control, 3.125 to 100 μM
Description: (§2) L929 cells in the logarithmic growth phase were selected, and the cell density was adjusted to 2 × 10^4 per well by a cell counter. The 96-well plate was inoculated in a 96-well plate, and the 96-well plate inoculated with cells was cultured in a 37 °C 5% carbon dioxide cell incubator for 24 h. Then, the medium containing 100 μM of the compound to be tested was added (the blank group was added to the medium without drug), shaken gently, and placed in a 5% carbon dioxide cell incubator at 37 °C for 24 h. Each concentration was repeated for […].
(§3) The assay detects live cells, but not dead cells, and the resulting signal depends on how activated the cells are. […] Therefore, MTT has been used to establish quantitative colorimetric assays for mammalian cell survival and proliferation. Therefore, this method can be used to measure cytotoxicity, proliferation, or activation. After 24 h, 20 μL of […] MTT solution (prepared in PBS with pH 7.6) was added in the dark, and cultured in a cell incubator for another 4 h. After 4 h, the 96 plate was taken out to discard the original medium, and 160 μL of DMSO was added, placed on a shaker, and mixed for about 10 min. Then, a microplate reader was used to measure its absorbance at 490 nm, and the results were recorded and analyzed.

[7] = tested on: L929 cells; experiment: MTT cytotoxicity test; type: cell-based; conditions: MTT, 3.125 to 100 μM
Description: as §2, §3

[8] = biological target: T3, MAO-B; conditions: cited from earlier work
[9] = biological target: T2, BChE; conditions: cited from earlier work
[10] = biological target: AChE (Homo sapiens, UniProt P22303); conditions: cited from earlier work
AChE, sequence (P22303 32-614): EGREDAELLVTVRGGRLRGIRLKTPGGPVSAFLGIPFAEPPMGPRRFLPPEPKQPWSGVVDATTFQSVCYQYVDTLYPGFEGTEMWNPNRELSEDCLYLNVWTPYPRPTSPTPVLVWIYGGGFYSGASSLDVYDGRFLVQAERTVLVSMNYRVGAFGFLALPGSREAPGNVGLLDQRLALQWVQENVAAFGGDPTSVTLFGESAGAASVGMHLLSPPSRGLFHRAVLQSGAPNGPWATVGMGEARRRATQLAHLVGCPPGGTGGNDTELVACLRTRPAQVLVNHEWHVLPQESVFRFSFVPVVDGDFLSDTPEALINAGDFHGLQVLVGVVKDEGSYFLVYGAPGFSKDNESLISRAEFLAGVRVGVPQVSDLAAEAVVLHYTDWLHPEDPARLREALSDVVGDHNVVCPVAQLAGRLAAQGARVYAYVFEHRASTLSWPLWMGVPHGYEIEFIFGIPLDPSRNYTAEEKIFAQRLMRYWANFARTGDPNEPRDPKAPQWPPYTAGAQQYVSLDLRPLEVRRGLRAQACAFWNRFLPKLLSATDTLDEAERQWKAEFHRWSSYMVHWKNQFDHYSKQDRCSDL

[11] = biological target: electric eel acetylcholinesterase (EeAChE); conditions: cited from earlier work
[12] = biological target: horse serum butyrylcholinesterase (EqBChE); conditions: cited from earlier work
[13] = biological target: T1, MAO-A; conditions: cited from earlier work
[14] = parameters: method as in doi:10.1007/s00044-018-2261-2; conditions: forced swimming test, p< 0.001; cited from earlier work

SMILES | pIC50 [1] | pIC50 [2] | pIC50 [4] | toxicity toward L929 cells (AO fluorescence staining) [5] | viability at 24 h [6] [%] | cytotoxicity against L929 cells [7] | other results
O=C(NCc1ccc(Br)cc1)N1CCc2ccccc2[C@@H]1c1ccccc1 [2j, (S)-N-(p-bromobenzyl)-1-phenyl-3,4-dihydroisoquinoline-2(1H)-carboxamide] | 5.71 | 5.61 | < 4.00 | no significant toxicity | > 90 | no obvious cytotoxicity | inhibition at 100 µM [3]: 34.5%
COc1ccc2c(c[n+](C)c3c4cc5c(cc4ccc23)OCO5)c1OC [chelerythrine] |  |  |  |  |  |  | pIC50 [8]: < 4.70
COc1ccc(CC2c3cc(O)c(OC)cc3CCN2C)cc1O (stereo not drawn) [reticuline] |  |  |  |  |  |  | pIC50 [9]: 4.19; pIC50 [10]: 3.52
COc1cccc(CNC(=O)N2CCc3ccccc3[C@@H]2c2ccccc2)c1 [2t, (S)-N-(m-methoxybenzyl)-1-phenyl-3,4-dihydroisoquinoline-2(1H)-carboxamide] | 5.68 | 5.60 | 5.79 | no significant toxicity | > 90 | no obvious cytotoxicity | inhibition at 100 µM [3]: 55%
O=C(NCc1cccc(Br)c1)N1CCc2ccccc2[C@@H]1c1ccccc1 [2i, (S)-N-(m-bromobenzyl)-1-phenyl-3,4-dihydroisoquinoline-2(1H)-carboxamide] | 5.87 | 5.81 | 5.37 | no significant toxicity | > 90 | no obvious cytotoxicity | 
COc1ccc(CNC(=O)N2CCc3ccccc3[C@@H]2c2ccccc2)c(OC)c1 [2v, (S)-N-(2,4-dimethoxybenzyl)-1-phenyl-3,4-dihydroisoquinoline-2(1H)-carboxamide] | 6.02 | 5.45 | 5.45 | no significant toxicity | > 90 | no obvious cytotoxicity | 
Cc1ccccc1CNC(=O)N1CCc2ccccc2[C@@H]1c1ccccc1 [2p, (S)-N-(o-methylbenzyl)-1-phenyl-3,4-dihydroisoquinoline-2(1H)-carboxamide] | 6.11 | 5.53 | 5.41 | no significant toxicity | > 90 | no obvious cytotoxicity | 
C[n+]1cc2cc3c(cc2c2ccc4cc5c(cc4c21)OCO5)OCO3 [avicine] |  |  |  |  |  |  | pIC50 [11]: 6.82; pIC50 [12]: 6.06; pIC50 [13]: 6.39
COc1cc2c3c(c1OC)-c1cc4c(cc1CC3NCC2)OCO4 (stereo not drawn) [nornantenine] |  |  |  |  |  |  | pIC50 [9]: 4.02; pIC50 [10]: 3.69
O=C(NCc1ccc(F)cc1)N1CCc2ccccc2[C@@H]1c1ccccc1 [2d, (S)-N-(p-fluorobenzyl)-1-phenyl-3,4-dihydroisoquinoline-2(1H)-carboxamide] | 5.24 | 5.86 | < 4.00 | no significant toxicity | > 90 | no obvious cytotoxicity | 
O=C(NCc1ccccc1)N1CCc2ccccc2[C@@H]1c1ccccc1 [2a, (S)-N-benzyl-1-phenyl-3,4-dihydroisoquinoline-2(1H)-carboxamide] |  |  |  |  |  |  | Inhibition Rate for MAO ([1]; compounds concentration 100 µM): 29.2%; duration of immobility [14]: 11.0 ± 7.1 s
